From US4332800A, “Cephem compounds” (Fujisawa Pharmaceutical Co., Ltd., priority 1979, dated 1982) come the findings set out here.

Common to all, as to type: cell-based
One test has as its system B. subtilis ATCC 6633. Nature of the test: Antimicrobial activity, minimal inhibitory concentration (agar streak) against B. subtilis ATCC 6633. The settings on record: Bacillus subtilis, ATCC6633, 10^8 viable cells per ml, heart infusion agar, 37° C. for 20 hours. The protocol:
(§1) Now in order to show the utility of the object compounds (I), test data on anti-microbial activity of a representative compound of the present invention are shown below.
(§2) One loopful of an overnight culture of each test strain in Trypticase-soy broth (10^8 viable cells per ml.) was streaked on heart infusion agar (HI-agar) containing graded concentrations of antibiotics, and the minimal inhibitory concentration (MIC) was expressed in terms of μg/ml after incubation at 37° C. for 20 hours.

The subject of another test is S. marcescens 35. Briefly: Antimicrobial activity, minimal inhibitory concentration (agar streak) against S. marcescens 35. To be noted: Serratia marcescens, 10^8 viable cells per ml, heart infusion agar, 37° C. for 20 hours. The protocol:
as §1, §2

Another test deals with Ps. aeruginosa 2. Briefly: Antimicrobial activity, minimal inhibitory concentration (agar streak) against Ps. aeruginosa 2. To be noted: Pseudomonas aeruginosa, 10^8 viable cells per ml, heart infusion agar, 37° C. for 20 hours. How it is done:
as §1, §2

The MIC is the lowest concentration found to suppress growth.

Each structure is given as a SMILES string. In brackets after ≈: the same amount, converted by molar mass.

In the case of `CCCO/N=C(\C(=O)NC1C(=O)N2C(C(=O)[O-])=C(C[n+]3ccccc3)CSC12)c1nsc(N)n1` (stereo not drawn) [(2)], the MIC in the test with B. subtilis ATCC 6633 stood at 0.39 µg/mL (≈ 0.774 µM); with S. marcescens 35, 3.13 µg/mL (≈ 6.22 µM); in the test on Ps. aeruginosa 2, 12.5 µg/mL (≈ 24.8 µM).
For `CCO/N=C(\C(=O)NC1C(=O)N2C(C(=O)[O-])=C(C[n+]3ccccc3)CSC12)c1nsc(N)n1` (stereo not drawn) [(1)], in that order: 0.78 µg/mL (≈ 1.59 µM), 1.56 µg/mL (≈ 3.19 µM) and 3.13 µg/mL (≈ 6.39 µM).
The like results for `CCO/N=C(\C(=O)NC1C(=O)N2C(C(=O)[O-])=C(C[n+]3ccc(C(N)=O)cc3)CSC12)c1nsc(N)n1` (stereo not drawn) [(3)] were, in that order, 0.78 µg/mL (≈ 1.46 µM), 3.13 µg/mL (≈ 5.88 µM) and 25 µg/mL (≈ 46.9 µM).
